Values quoted from earlier work, collected in patent US8148390B2, “Monocyclic anilide spirolactam CGRP receptor antagonists” (Merck, Sharp & Dohme, Corp., priority 2007, dated 2012).
Like-named read-outs stand apart in the source and are kept apart here. Ends that are not written are not given here.

Assays:
middle meningeal artery = conditions: rats, electrical stimulation of the dura mater, prior administration (Williamson et al. 1997)
facial blood flow [1] = conditions: rat, trigeminal ganglion stimulation (Escott et al. 1995)
[2] = system: acute attacks of migraine; conditions: clinical trials (Olesen et al. 2004)
[3] = system: headache induced by CGRP infusion; conditions: control group (Petersen et al. 2005)
facial blood flow [4] = conditions: marmoset, electrical stimulation of the trigeminal ganglion (Doods et al. 2000)

| Molecule | effect on increase of middle meningeal artery diameter (middle meningeal artery) | effect on increase of facial blood flow (facial blood flow [1]) | efficacy in treating acute attacks of migraine [2] | prevention of headache induced by CGRP infusion [3] | effect on increase of facial blood flow (facial blood flow [4]) |
| --- | --- | --- | --- | --- | --- |
| CGRP(8-37): a peptide CGRP antagonist; fragment of CGRP that lacks seven N-terminal amino acid residues (VTHRLAGLLSRSGGVVKNNFVPTNVGSKAF; ends and bridges not checked; UniProt P06881 90-119, looked up, fragment) | blocked | inhibited |  |  |  |
| NCCCC[C@H](NC(=O)[C@@H](Cc1cc(Br)c(O)c(Br)c1)NC(=O)N1CCC(N2Cc3ccccc3NC2=O)CC1)C(=O)N1CCN(c2ccncc2)CC1 [BIBN4096BS] |  |  | effective in treating acute attacks of migraine | able to prevent headache induced by CGRP infusion | could be blocked |
